# How the values were obtained:
# [1] = tested on: Human umbilical vein endothelial cells (HUVECs); details: read-out: approximate IC50, endothelial cell proliferation; 96 hours in culture
# Protocol: Each experiment was performed in triplicate. The culture medium was changed daily.
# [2] = tested on: endothelial cells having invaded Matrigel plugs; test: In vivo s.c. Matrigel plug assay; set-up: species or system C57B1/6N female mice; details: daily i.p. administration of 10 μg/mice or higher doses, day 1 to day 7
# Protocol: FIG. 5: bpV(phen) inhibits angiogenesis in vivo in the s.c. Matrigel assay. Graph showing the results of an experiment expressed as the number of cells that migrated in three microscopic fields for each s.c. Matrigel plug. Fields were equidistant from the edge of the plug. […] (2) Four mice that received daily administration of 10 μg bpV(phen) during the 7 days post-implantation. (3) Four mice that received daily administration of 50 μg bpV(phen) during the 7 days post-implantation. (4) Four mice that received daily administration of 100 μg bpv(phen) during the 7 days post-implantation. (5) Four mice that received daily administration of PBS during the 7 days post-implantation.
# This assay was performed as previously described (107). Briefly, Matrigel (liquid at 4° C.) was mixed with 200 ng/ml ECGS and injected s.c. into four C57B1/6N female mice (1 ml/mice). After injection, the Matrigel polymerized to form a plug. After 7 days, the animals were sacrified, and the Matrigel plugs were removed and fixed in 10% neutral-buffered formalin solution (Sigma Chemical Co.) and embedded in paraffin. Histological sections were stained with Masson's trichrome and angiogenesis was scored by counting the number of cells that migrated in three microscopic fields for each s.c. Matrigel plug.
# Experiments were performed to determine whether bpV(phen) inhibits vessel formation in vivo. […]
# [3] = tested on: Th1 and Th2 cytokine genes in spleen; test: Cytokine gene expression in spleen (multi-probe RNase protection assay); assay type: in vivo, BALB/c mice; details: naive mice; up to 24 hr; in comparison to PBS
# Source text: FIG. 8: In vivo bpV(phen)-induced cytokine gene expression in spleen of BALB/c mice. Expression of Th1 (IFN-(, IL-2, IL-12) and Th2 (IL-4 and IL-10) cytokines were monitored in spleen of BALB/c mice in response to bpv(phen) over a 24-hr period. Expression of cytokine genes has been monitored using a multi-probe RNase protection assay as described in more detail below. Results obtained are representative of 3 experiments performed independently.
# [4] = tested on: Leishmania major; test: Leishmania vaccination trial (adjuvant); set-up: species or system BALB/c mice; details: in vivo, Leishmania infection
# Protocol: FIG. 10: Use of bpV(phen) as an adjuvant in Leishmania vaccination trial. BALB/c mice were inoculated with soluble Leishmania major antigen (SLA; 100 μg) with or without daily injection of bpV(phen) ([…]) for 5 days. Two weeks later animals received a second set of treatment as above. Control animals received either PBS or bpV(phen) alone without any SLA. At 4 weeks post-vaccination, animals were challenged with 5 million Leishmania major stationary phase promastigotes injected in the right hind footpad. Progression of infection was followed by measuring footpad thickness with a caliper on a weekly basis. Differences measured for reduced footpad thickness were significant (p<0.01, Student's t test, n=5-10 animals per group) over their respective controls.
# In the past, use of total and soluble Leishmania antigen (SLA) for vaccination has been reported and permitted some levels of protection against infectious challenges (85). Using a murine model, we have tested whether bpV(phen)-modulated cytokine and chemokine generation (as reported above) in combination with SLA administration could lead to protection against Leishmania infection. Mice have received PBS and bpv(phen) as controls, and SLA (100 μg) with or without daily bpV(phen) injection (500 nM, 5 days). All injections were done intra-peritoneally. […]
# [5] = tested on: ZR-75-1 human breast cancer; test: ZR-75-1 human breast cancer xenograft; assay type: in vivo, Female homozygous HSD nu/nu athymic mice; details: 2.5 mg/Kg daily i.p., 42 days; E1 replacement
# Protocol: A) ZR-75-1 human breast cancer: ZR-75-1 human breast cancer cells obtained from the American Tissue Culture Collection (Rockville, Md.) were cultured in phenol red-free RPMI 1640. […] Female homozygous HSD nu/nu athymic mice (50 days old) were obtained from Harlan Sprague Dawley Inc. (Indianapolis, Ind.). Five mice were housed per vinyl cage, which was equipped with air filter lids and kept in laminar air flow hoods under pathogen-limiting conditions. The photoperiod was composed of a period of 14 h of light and a period of 10 h of darkness. Cages, bedding, and food (Agway Pro-Lab R-M-H diet #4018) were autoclaved prior to use. […] Bilateral ovariectomy (OVX) was performed on all animals one week prior to cell inoculation, under 2.5% isoflurane anesthesia mixed with oxygen. Simultaneously, an oestrogen (E2) implant was inserted subcutaneously to stimulate […] tumor growth and appearance. E2 implants were prepared in 1-cm long silastic tubing (inside diameter, 0.062 inch; outside diameter, 0.095 inch) containing 0.5 cm of estradiol/cholesterol diluted at a ratio of 1:10 (w:w). […] Statistical significance of treatment effect was assessed by repeated measures ANOVA after applying a power transformation to equalize residual variances and linearize the tumor growth curves.
smiles,measurement,setting,value
"O.O.O.OO.OO.[K+].[OH-].[V].c1cnc2c(c1)ccc1cccnc12 [bpV(phen), potassium bisperoxo(1,10-phenanthroline)oxovanadate]",IC50,[1],~2 µM
same,number of endothelial cells having invaded Matrigel plugs,[2],decreased by half
same,"cytokine gene expression in spleen (IL-12, IL-10, IL-2 and IFN)",[3],significantly up-regulated
same,protection against infectious challenge (adjuvant potential),[4],complete protection
same,tumor size,[5],do not resulted in increase of tumor size

# Reference: patent US20030055106A1, “Therapeutic uses of peroxometallic compounds” (priority 1999, published 2003)
